The values below come from EP0180309B2, “Improved disinfecting and preserving solutions for contact lenses and methods of use” (priority 1984, dated 1986).

For the series, the system named is L-929 mouse fibroblast cells. It counts as cell-based. The following applies: 10 ppm. How it is done:
Comparative studies are conducted to evaluate the cytotoxicity of individual aqueous lens disinfecting and preservative solutions containing PHMB, benzalkonium chloride and chlorhexidine. The studies utilize the Agar Overlay Assay Technique published in the Journal of Pharmaceutical Sciences, Vol. 54 (1965) pp 1545-1547 by W. L. Guess et al. The technique utilized is similar to the Zone of Inhibition Method of Otten et al (Example VII), however, when the lenses are removed from the preservative solutions they are only rinsed with isotonic saline solution to remove residual preservative. The lenses are then placed on L-929 mouse fibroblast cells to ascertain the presence of any cytotoxic response or cell inflammation which is noted by a lysing of the cells.

Take `[H]/N=C(\N/C(=N/[H])NCCCCCCNC(=N)NC(=N)Nc1ccc(Cl)cc1)Nc1ccc(Cl)cc1` [Chlorhexidine, chlorhexidine gluconate]: the “Percent Cells Lysed” value was 0/0 and the “Width of Decolorized Zone” value was 0/0.
